Biological target: T1, Human OTUB1 wild-type (Homo sapiens, UniProt Q96FW1)
T1 construct: His tag (N); made in house; host or cells: E. coli BL21-CodonPlus (DE3)-RIPIL
Assay: Covalent modification of OTUB1 (adduct formation), mass spectrometry-based assay (OTUB1 covalent binders; selected CFTR or cGAS based bivalent compounds)
Assay type: binding
Conditions: covalent adduct formation with OTUB1 protein
Method in brief: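 His-tagged human OTUB1 (10 μM), E. coli-expressed, incubated with compound (2500 μM) in 50 mM Tris-HCl pH 7.5, 150 mM NaCl, 0.5 mM TCEP for 1 h at room temperature. Adduct detected by intact-protein LC/ESI-TOF mass spectrometry after buffer exchange; duplicates.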

T1 sequence (Q96FW1 whole entry): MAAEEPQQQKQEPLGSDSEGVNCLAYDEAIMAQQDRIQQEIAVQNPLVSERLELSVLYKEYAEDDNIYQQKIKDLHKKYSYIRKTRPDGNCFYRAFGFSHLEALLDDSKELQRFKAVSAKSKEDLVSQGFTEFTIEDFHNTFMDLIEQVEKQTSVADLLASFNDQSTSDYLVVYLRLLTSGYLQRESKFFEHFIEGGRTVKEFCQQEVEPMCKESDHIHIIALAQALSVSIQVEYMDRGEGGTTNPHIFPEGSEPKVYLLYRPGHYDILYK

| SMILES | % of OTUB1 modified [%] |
| --- | --- |
| C=CC(=O)N1CCN(c2ccc(C)o2)C(=O)C1 [EN523, reference compound] | 40 |
| CN(C)C(C)(C)C#CC(=O)N1CC(NC(=O)c2cc3c(s2)CCCC3)C1 [XS224-159, N-(1-(4-(dimethylamino)-4-methylpent-2-ynoyl)azetidin-3-yl)-4,5,6,7-tetrahydrobenzo[b]thiophene-2-carboxamide] | 92 |
| Cc1ccc(C(=O)N2C[C@@H]3C[C@H]2CN3C(=O)/C=C/CN(C)C)s1 [XS190-80, (E)-4-(dimethylamino)-1-((1S,4S)-5-(5-methylthiophene-2-carbonyl)-2,5-diazabicyclo[2.2.1]heptan-2-yl)but-2-en-1-one] | 7 |
| CN(C)C/C=C/C(=O)N1CCN(c2csc3ccccc23)C(=O)C1 [XS185-86, (E)-1-(benzo[b]thiophen-3-yl)-4-(4-(dimethylamino)but-2-enoyl)piperazin-2-one] | 80 |
| Cc1ccc(N2CCN(C(=O)/C=C/CN3CCOCC3)CC2=O)s1 [XS165-155, (E)-1-(5-methylthiophen-2-yl)-4-(4-morpholinobut-2-enoyl)piperazin-2-one] | <5 |
| C=CC(=O)N1CCN(c2cnc(C)n2C)C(=O)C1 [XS165-30, 4-acryloyl-1-(1,2-dimethyl-1H-imidazol-5-yl)piperazin-2-one] | <5 |
| Cc1ccc(NC(=O)C2CCCCN2C(=O)/C=C/CN(C)C)s1 (centres unmarked) [XS175-148, (E)-1-(4-(dimethylamino)but-2-enoyl)-N-(5-methylthiophen-2-yl)piperidine-2-carboxamide] | 20 |
| CN(C)C(C)(C)C#CC(=O)N1CC(C(=O)Nc2cc3ccccc3s2)C1 [XS224-107, N-(benzo[b]thiophen-2-yl)-1-(4-(dimethylamino)-4-methylpent-2-ynoyl)azetidine-3-carboxamide] | 60 |
| Cc1ccc(C(=O)N2CC(NC(=O)C#CCN(C)C)C2)s1 [XS224-144, 4-(dimethylamino)-N-(1-(5-methylthiophene-2-carbonyl)azetidin-3-yl)but-2-ynamide] | 90 |
| Cc1ccc(N2CCN(C(=O)CCl)CC2=O)s1 [XS165-119, 4-(2-chloroacetyl)-1-(5-methylthiophen-2-yl)piperazin-2-one] | 25 |
| CN(C)C/C=C/C(=O)N1C2CC1CN(C(=O)C1CCC1)C2 [XS197-38, (E)-1-(3-(cyclobutanecarbonyl)-3,6-diazabicyclo[3.1.1]heptan-6-yl)-4-(dimethylamino)but-2-en-1-one] | 43 |
| Cc1cc(N2CCN(C(=O)/C=C/CN(C)C)CC2=O)sc1C [XS175-70, (E)-4-(4-(dimethylamino)but-2-enoyl)-1-(4,5-dimethylthiophen-2-yl)piperazin-2-one] | 90 |
| Cc1ccc(C(=O)NC2CN(C(=O)/C=C/CN(C)C)C2)s1 [XS190-9, (E)-N-(1-(4-(dimethylamino)but-2-enoyl)azetidin-3-yl)-5-methylthiophene-2-carboxamide] | 38 |
| CN(C)C/C=C/C(=O)N1C2CCC1C(=O)N(c1csc3ccccc13)C2 (centres unmarked) [XS190-44, (E)-3-(benzo[b]thiophen-3-yl)-8-(4-(dimethylamino)but-2-enoyl)-3,8-diazabicyclo[3.2.1]octan-2-one] | 97 |
| CN(C)C/C=C/C(=O)N1CCN(c2cc3ccccc3s2)C(=O)C1 [XS175-179, (E)-1-(benzo[b]thiophen-2-yl)-4-(4-(dimethylamino)but-2-enoyl)piperazin-2-one] | 100 |
| Cc1ccc(C(=O)N2CC3CC(C2)N3C(=O)C#CCN(C)C)s1 [XS209-26, 4-(dimethylamino)-1-(3-(5-methylthiophene-2-carbonyl)-3,6-diazabicyclo[3.1.1]heptan-6-yl)but-2-yn-1-one] | 98 |
| Cc1ccc(CN2CC3CC(C2)N3C(=O)/C=C/CN(C)C)s1 [XS190-158, (E)-4-(dimethylamino)-1-(3-((5-methylthiophen-2-yl)methyl)-3,6-diazabicyclo[3.1.1]heptan-6-yl)but-2-en-1-one] | 8 |
| CN(C)C/C=C/C(=O)N1C2CC1CN(C(=O)c1ccc(C3CCN(C)CC3)s1)C2 [XS197-74, (E)-4-(dimethylamino)-1-(3-(5-(1-methylpiperidin-4-yl)thiophene-2-carbonyl)-3,6-diazabicyclo[3.1.1]heptan-6-yl)but-2-en-1-one] | 92 |
| Cc1cnc(C(=O)N2CC3CC(C2)N3C(=O)/C=C/CN(C)C)s1 [XS209-65, (E)-4-(dimethylamino)-1-(3-(5-methylthiazole-2-carbonyl)-3,6-diazabicyclo[3.1.1]heptan-6-yl)but-2-en-1-one] | 80 |
| Cc1ccc(NC(=O)C2(C)CN(C(=O)/C=C/CN(C)C)C2)s1 [XS209-21, (E)-1-(4-(dimethylamino)but-2-enoyl)-3-methyl-N-(5-methylthiophen-2-yl)azetidine-3-carboxamide] | 22 |
| Cc1ccc(NC(=O)C2(O)CN(C(=O)C#CCN(C)C)C2)s1 [XS209-99, 1-(4-(dimethylamino)but-2-ynoyl)-3-hydroxy-N-(5-methylthiophen-2-yl)azetidine-3-carboxamide] | 98 |
| Cc1ccc(NC(=O)C2(O)CN(C(=O)/C=C/CN(C)C)C2)s1 [XS209-22, (E)-1-(4-(dimethylamino)but-2-enoyl)-3-hydroxy-N-(5-methylthiophen-2-yl)azetidine-3-carboxamide] | 47 |

Biological target: T2, cGAS and OTUB1 (Homo sapiens, UniProt Q8N884+Q96FW1)
T2 construct: other panels use HeLa cells; recombinant His-OTUB1 from E. coli described
T2 sequence (Q8N884 whole entry): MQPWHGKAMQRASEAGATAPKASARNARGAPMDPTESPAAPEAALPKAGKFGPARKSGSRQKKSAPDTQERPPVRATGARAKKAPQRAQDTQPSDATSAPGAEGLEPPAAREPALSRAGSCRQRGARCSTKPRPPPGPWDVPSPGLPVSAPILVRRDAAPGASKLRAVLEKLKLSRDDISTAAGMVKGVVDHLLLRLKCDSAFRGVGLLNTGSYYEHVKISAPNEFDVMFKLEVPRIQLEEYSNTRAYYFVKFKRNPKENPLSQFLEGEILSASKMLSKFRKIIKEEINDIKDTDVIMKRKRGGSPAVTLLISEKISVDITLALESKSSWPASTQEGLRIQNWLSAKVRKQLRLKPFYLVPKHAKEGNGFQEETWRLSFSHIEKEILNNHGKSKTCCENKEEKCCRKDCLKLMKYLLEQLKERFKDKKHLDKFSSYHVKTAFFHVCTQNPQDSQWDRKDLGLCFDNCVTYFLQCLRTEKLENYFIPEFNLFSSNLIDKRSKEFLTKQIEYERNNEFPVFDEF
T2 sequence (Q96FW1 whole entry): as the sequence (Q96FW1 whole entry) above
Assay: cGAS co-elution with OTUB1
Assay type: binding
Conditions: in the presence of compound; FIG. 6F

| SMILES | co-elution of cGAS with OTUB1 |
| --- | --- |
| CN(C)C/C=C/C(=O)N1CCN(c2ccc(CCNC(=O)CCCCCCCCCC(=O)NCCn3ccc(-c4cc(Cl)c(Cl)c5[nH]c6c(c45)CN(C(=O)CO)CC6)n3)s2)C(=O)C1 [mS8588, (E)-N1-(2-(3-(6,7-dichloro-2-(2-hydroxyacetyl)-2,3,4,5-tetrahydro-1H-pyrido[4,3-b]indol-9-yl)-1H-pyrazol-1-yl)ethyl)-N11-(2-(5-(4-(4-(dimethylamino)but-2-enoyl)-2-oxopiperazin-1-yl)thiophen-2-yl)ethyl)undecanediamide] | cGAS co-elutes with OTUB1 |
| CN(C)C/C=C/C(=O)N1CCN(c2ccc(CCC(=O)NCCCCCCCCCNC(=O)Cn3ccc(-c4cc(Cl)c(Cl)c5[nH]c6c(c45)CN(C(=O)CO)CC6)n3)s2)C(=O)C1 [MS7829] | cGAS co-elutes with OTUB1 |

Tested on: OTUB1
Assay: not given
Conditions: background statement; cited from earlier work

| SMILES | binding affinity to OTUB1 |
| --- | --- |
| C=CC(=O)N1CCN(c2ccc(C)o2)C(=O)C1 [EN523, reference compound] | low binding affinity to OTUB1 |

Tested on: OTUB1
Assay: not given
Conditions: background statement; cited from earlier work
Remark: another data set of the same source

| SMILES | inhibition of the enzymatic activity of OTUB1 |
| --- | --- |
| Cc1ccc(S(=O)(=O)Nc2cc(C(F)(F)F)ccc2C(=O)Nc2nc(-c3ccccc3)cs2)cc1 [ML364] | inhibit the enzymatic activity of OTUB1 |
